{
  "source": "paper PMC12520456",
  "about": "“Regulating Enzyme Activity via Microaggregates Mediated by Phase Separation” (Advanced Science, 2025)",
  "key": {"[1]": {"system": "postoperative pancreatic fistula (POPF)", "experiment": "Rat pancreatic common duct transection (lethal) POPF model", "type": "in vivo", "method": "In order to challenge the efficacy of DPMD in emergency treatments for POPF, a lethal rat model of POPF was established through transection of the main pancreatic duct. After 8 h post‐surgical modeling, evidence of severe POPF was observed through the presence of leaky Chymotrypsin (Figure S11, Supporting Information). At this critical juncture, DPMD, LPMD or an equal volume normal saline solution were administered via syringe injection into the abdominal cavity near the pancreas. […] Consequently, all […] rats subjected to the mock treatment succumbed to three days post‐surgical modeling, while LPMD only extended the median survival from 2 days in Ctrl to 3 days in LPMD (Figure 4D). […] Furthermore, both DPMD and LPMD treatments decreased inflammation markers including TNF‐α, IL‐6, IL‐8, IL‐33 sST2, CRP, HMGB1, MPO, PAF, PCT, PGE2 and SAA present in rat serum (Figure 4G).\nWithout damaging the surrounding pancreatic tissue and capillaries, a transverse incision on the pancreatic splenic duct was performed using micro-scissors. Successful modelling is confirmed by observing external leakage of pancreatic fluid. Place a self-made drainage tube into the rat's abdominal cavity with its outlet positioned at the site of the transected splenic duct, then exit through the abdominal wall and fix it there.\n3.14 Construction of rat pancreatic common duct transection model\nAnimal studies were performed according to the protocols approved by the Institution Guidelines and were approved by the Laboratory Animal Center of Xijing Hospital of The Fourth Military Medical University (No. IACUC-20220308). ALL rats were purchased from the Laboratory Animal Center of The Fourth Military Medical University. The rats were housed under standard specific pathogen-free conditions with a 12h–12h light–dark cycle.\nThe preoperative preparation and postoperative care for the rat model were consistent with those of the rat pancreatic splenic duct transection pancreatic fistula model, except for the transecting of the pancreatic common duct of the pancreas in modeling. A custom-made drainage tube outlet was positioned around the area where the pancreatic common duct was transected.\n3.15 Evaluation of the effect of DPMD on pancreatic duct transection model The male SD rats were randomly assigned to six rats in each group. Prepare a pancreatic duct transection model with a pancreatic fistula and apply 0.3 mL of normal saline, 0.3 ml of DPMD, and 0.3 mL of LPMD at the incision site. After 3days, administer 3 mL of MeO-Succ-Arg-Pro-Tyr-AMO solution (ATT Bioquest) to the pancreatic stump and surrounding tissues for fluorescence imaging in real-time under dark field conditions while using an API filter. Blood and ascitic fluid"}, "NIH-3T3 or HUVEC": {"system": "NIH-3T3 or HUVEC", "experiment": "Annexin V/PI apoptosis assay by flow cytometry", "type": "cell-based", "conditions": "48 h; DPMD, also pre-incubated with trypsin or chymotrypsin; Figure S14B", "method": "and the product's absorbance at […] was dynamically and real-time monitored using a microplate […]\nDuring the chymotrypsin activity assay, DPMD was incorporated into chymotrypsin. The final concentration of chymotrypsin was set at 10 μg/mL, and the final concentration of DPMD was 5 mg/mL. In the corresponding control group, an equal volume of the buffer solution prepared by the kit was added. Subsequently, the enzyme-peptide mixture was added to the reaction system containing the substrate N-Benzoyl-L-Tyrosine Ethyl Ester (BTEE) at a ratio of 1:100 (where the proportion of the enzyme-peptide mixture solution was 1) for the detection of enzyme activity. The reaction was carried out at 25 ℃, and the product's absorbance at 256 nm was dynamically and real-time monitored using a microplate reader. The experimental result was represented by the enzyme reaction's degree of completion. All the tests were repeated three independent times.\nNIH-3T3 cells were obtained from the National Collection of Authenticated Cell Cultures. […] Cell viability was evaluated by the CCK-8 assay (Dojindo) at 1-, 3-, 5-, and 7-days post-treatment. […] The absorbance at 450 nm was recorded using a microplate reader […]\nwas performed using an Annexin V-Alexa Fluor 647/PI kit (Solarbio) according to the manufacturer’ s protocol. […] Samples were analyzed within 1h on a Sony MA900 flow cytometer.\n3.12 Animal fluorescence imaging […]"}},
  "note": "Non-standard residues stand in square brackets, D forms with d. Residues, ends and D or L forms follow the SMILES beside them.",
  "data": [
    {"smiles": "CC[C@@H](C)[C@@H](NC(=O)[C@@H](CCC(N)=O)NC(=O)[C@H](NC(=O)[C@@H](Cc1ccc(O)cc1)NC(=O)CNC(=O)[C@@H](CC(C)C)NC(=O)[C@H](NC(=O)[C@@H](CO)NC(=O)CNC(=O)[C@@H](C)NC(=O)[C@@H](CC(=O)O)NC(=O)[C@@H](C)NC(=O)[C@@H](CCCNC(=N)N)NC(=O)[C@@H](C)NC(=O)[C@@H](CC(=O)O)NC(=O)[C@@H](C)NC(=O)[C@@H](CCCNC(=N)N)NC(=O)[C@@H](C)NC(=O)[C@@H](CC(=O)O)NC(=O)[C@@H](C)NC(=O)[C@@H](CCCNC(=N)N)NC(=O)[C@@H](C)NC(=O)[C@@H](CC(=O)O)NC(=O)[C@@H](C)NC(=O)[C@H](N)CCCNC(=N)N)C(C)C)[C@H](C)CC)C(=O)N[C@H](CCCNC(=N)N)C(=O)O", "note": "[DPMD, Ac‐(D‐RADA)4‐CONH2] (H-[dR][dA][dD][dA][dR][dA][dD][dA][dR][dA][dD][dA][dR][dA][dD][dA]G[dS][dV][dL]G[dY][dI][dQ][dI][dR]-OH; N-terminus and C-terminus assumed)", "values": [
      {"measurement": "chymotrypsin leakage by fluorescence imaging", "setting": "[1]; 3 day after treatment, laparotomy, Figure 4B", "value": "halted the leakage almost entirely"},
      {"measurement": "ascitic and serum amylase and lipase levels", "setting": "[1]; compared to mock treatment, Figure 4C", "value": "statistically significant reduction"},
      {"measurement": "deaths during the seven-day observation period", "setting": "[1]; injection into abdominal cavity 8 h after modeling, all eight mock-treated rats died within three days", "value": "none of the rats treated with DPMD died"},
      {"measurement": "H&E staining of pancreatic tissue", "setting": "[1]; three days after surgery, Figure 4E", "value": "reduced edema and inflammatory cell infiltration"},
      {"measurement": "serum inflammation markers (TNF-α, IL-6, IL-8, IL-33, sST2, CRP, HMGB1, MPO, PAF, PCT, PGE2, SAA)", "setting": "[1]; within 7 days after surgery, Figure 4G", "value": "decreased"},
      {"measurement": "apoptosis or necrosis (Annexin V/PI)", "setting": "NIH-3T3 or HUVEC", "value": "no increase in apoptosis or necrosis"}
    ]}
  ]
}
